Assay results reported in patent US7238685B2, “Benzo-fused heterocycles as endothelin antagonists” (Actelion Pharmaceuticals Ltd., priority 2001, dated 2007).
Where two headings read alike, the source gives them in different places.

Tests used:
[1] = molecular target: T1, rat aortic rings (ETA receptors) (Rattus norvegicus, UniProt P26684); assay: Inhibition of endothelin-1-induced contractions on isolated rat aortic rings
T1 construct: from tissue; host or cells: thoracic aorta rings of adult Wistar rats, endothelium removed
T1 sequence (P26684 21-426): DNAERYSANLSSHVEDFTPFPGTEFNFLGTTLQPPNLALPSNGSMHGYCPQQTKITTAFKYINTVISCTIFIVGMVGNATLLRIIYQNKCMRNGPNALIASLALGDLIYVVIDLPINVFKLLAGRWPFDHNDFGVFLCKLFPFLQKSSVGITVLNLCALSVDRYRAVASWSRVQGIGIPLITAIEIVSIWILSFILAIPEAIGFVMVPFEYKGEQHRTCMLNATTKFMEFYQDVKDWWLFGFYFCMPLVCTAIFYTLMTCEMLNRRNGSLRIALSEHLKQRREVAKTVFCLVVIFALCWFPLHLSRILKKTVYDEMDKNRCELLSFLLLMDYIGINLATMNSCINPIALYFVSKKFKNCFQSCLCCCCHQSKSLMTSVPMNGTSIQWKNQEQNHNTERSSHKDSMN

[2] = molecular target: T2, rat tracheal rings (ETB receptors) (Rattus norvegicus, UniProt P21451); assay: Inhibition of sarafotoxin S6c-induced contractions on isolated rat tracheal rings
T2 construct: from tissue; host or cells: tracheal rings of adult Wistar rats, epithelium removed
T2 sequence (P21451 27-442): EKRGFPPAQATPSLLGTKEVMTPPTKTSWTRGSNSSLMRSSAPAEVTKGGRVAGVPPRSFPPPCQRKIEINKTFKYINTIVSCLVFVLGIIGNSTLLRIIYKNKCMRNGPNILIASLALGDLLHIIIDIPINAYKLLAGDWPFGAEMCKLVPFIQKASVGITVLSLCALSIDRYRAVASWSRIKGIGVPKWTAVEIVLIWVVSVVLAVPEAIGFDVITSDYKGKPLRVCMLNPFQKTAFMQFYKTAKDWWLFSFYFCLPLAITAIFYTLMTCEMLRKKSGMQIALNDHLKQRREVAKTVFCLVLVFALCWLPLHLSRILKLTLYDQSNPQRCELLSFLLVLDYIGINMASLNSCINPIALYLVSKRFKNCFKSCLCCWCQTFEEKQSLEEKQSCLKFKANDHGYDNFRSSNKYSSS
Protocol: 2) Inhibition of Endothelin-induced Contractions on Isolated Rat Aortic Rings (ETA Receptors) and Rat Tracheal Rings (ETB Receptors):
The functional inhibitory potency of the endothelin antagonists was assessed by their inhibition of the contraction induced by endothelin-1 on rat aortic rings (ETA receptors) and of the contraction induced by sarafotoxin S6c on rat tracheal rings (ETB receptors). Adult Wistar rats were anesthetized and exsanguinated. The thoracic aorta or trachea were excised, dissected and cut in 3–5 mm rings. The endothelium/epithelium was removed by gentle rubbing of the intimal surface. Each ring was suspended in a 10 ml isolated organ bath filled with Krebs-Henseleit solution (in mM; NaCl 115, KCl 4.7, MgSO4 1.2, KH2PO4 1.5, NaHCO3 25, CaCl2 2.5, glucose 10) kept at 37° C. and gassed with 95% O2 and 5% CO2. The rings were connected to force transducers and isometric tension was recorded (EMKA Technologies SA, Paris, France). The rings were stretched to a resting tension of 3 g (aorta) or 2 g (trachea). […] The functional inhibitory potency of the test compound was assessed by calculating the concentration ratio, i.e. the shift to the right of the EC50 induced by different concentrations of test compound. EC50 is the concentration of endothelin needed to get a half-maximal contraction, pA2 is the negative logarithm of the antagonist concentration which induces a two-fold shift in the EC50 value.

[3] = molecular target: T3, human recombinant ETB receptors (Homo sapiens, UniProt P24530); assay: Inhibition of endothelin binding to membranes from CHO cells carrying human ET receptors (ETB); settings: read-out: IC50 ETB
T3 construct: expressed in transfected cells; host or cells: CHO cells (microsomal membranes)
T3 sequence (P24530 27-442): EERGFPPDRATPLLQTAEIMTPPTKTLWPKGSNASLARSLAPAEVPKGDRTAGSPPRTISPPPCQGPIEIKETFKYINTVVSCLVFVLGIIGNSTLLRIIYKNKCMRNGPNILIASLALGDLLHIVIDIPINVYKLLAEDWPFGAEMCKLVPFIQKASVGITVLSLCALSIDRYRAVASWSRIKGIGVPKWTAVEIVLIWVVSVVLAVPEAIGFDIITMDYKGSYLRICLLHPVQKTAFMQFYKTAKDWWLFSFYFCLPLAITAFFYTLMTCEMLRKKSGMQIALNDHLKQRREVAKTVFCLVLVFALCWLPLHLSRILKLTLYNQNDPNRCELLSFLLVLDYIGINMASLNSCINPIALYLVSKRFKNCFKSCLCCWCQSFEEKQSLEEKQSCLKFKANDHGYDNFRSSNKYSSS

[4] = molecular target: T4, human recombinant ETA receptors (Homo sapiens, UniProt P25101); assay: Inhibition of endothelin binding to membranes from CHO cells carrying human ET receptors (ETA); settings: read-out: IC50 ETA
T4 construct: expressed in transfected cells; host or cells: CHO cells (microsomal membranes)
T4 sequence (P25101 21-427): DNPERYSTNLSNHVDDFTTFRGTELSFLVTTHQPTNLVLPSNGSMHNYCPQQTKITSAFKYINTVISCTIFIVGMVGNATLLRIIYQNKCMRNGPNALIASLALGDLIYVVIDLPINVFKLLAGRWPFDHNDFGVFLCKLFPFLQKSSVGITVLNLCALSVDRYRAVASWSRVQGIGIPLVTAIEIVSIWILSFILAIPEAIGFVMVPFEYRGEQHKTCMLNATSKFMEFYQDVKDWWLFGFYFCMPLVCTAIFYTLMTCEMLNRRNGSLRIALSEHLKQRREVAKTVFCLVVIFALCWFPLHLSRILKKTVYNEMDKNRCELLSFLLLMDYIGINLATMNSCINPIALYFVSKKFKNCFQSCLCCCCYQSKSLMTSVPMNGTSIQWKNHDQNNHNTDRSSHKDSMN

Row | Structure (SMILES) | Kb ([1]; read-out: pA2 (aortic rings) (converted)) [nM] | Kb [2] [nM] | Kb [1] [nM] | IC50 [3] [nM] | IC50 [4] [nM]
1 | COc1cc(OC)nc(O[C@H](C(=O)O)[C@@]2(c3ccccc3)NCC(=O)N(Cc3c(F)cc(F)cc3F)c3ccccc32)n1 (racemic) [Example 48] | 6.46 | 525 |  |  | 
2 | Cc1cc(C)nc(O[C@H](C(=O)O)[C@@]2(c3ccccc3)NCC(=O)N(Cc3c(F)cc(F)cc3F)c3ccccc32)n1 (racemic) [Example 107, (±)-(S*)-(4,6-dimethyl-pyrimidin-2-yloxy)-[(5S*)-2-oxo-5-phenyl-1-(2,4,6-trifluoro-benzyl)-2,3,4,5-tetrahydro-1H-benzo[e][1,4]diazepin-5-yl]-acetic acid] |  | 661 | 6.61 | 42 | 1
3 | Cc1cc(C)nc(O[C@H](C(=O)O)[C@@]2(c3ccccc3)NCC(=O)N(Cc3c(Cl)cccc3Cl)c3ccccc32)n1 (racemic) [Example 115] |  | 27.5 | 2.82 | 3 | 1
4 | Cc1cc(C)nc(O[C@H](C(=O)O)[C@@]2(c3cccc(-c4ccccc4)c3)NCC(=O)N(Cc3c(F)cc(F)cc3F)c3ccccc32)n1 (racemic) [Example 211, (±)-(S*)-[(5S*)-5-biphenyl-3-yl-2-oxo-1-(2,4,6-trifluoro-benzyl)-2,3,4,5-tetrahydro-1H-benzo[e][1,4]di-azepin-5-yl]-(4,6-dimethyl-pyrimidin-2-yloxy)-acetic acid] |  | 85.1 | 0.912 | 62 | 6
